According to patent publication US9493446B2, “Orexin receptor antagonists which are [ortho bi-(hetero-)aryl]-[2-(meta bi-(hetero-)aryl)-pyrrolidin-1-yl]-methanone derivatives” (Actelion Pharmaceuticals Ltd, priority 2012, dated 2016):
Like-named read-outs stand apart in the source and are kept apart here.

Legend:
human orexin-2 receptor = human orexin-2 receptor (Homo sapiens (Human), UniProt O43614); assay: Intracellular calcium measurement (FLIPR), CHO cells expressing human orexin-2 receptor, 3 nM orexin-A; assay type: cell-based; conditions: read-out: IC50 OX2
Sequence of human orexin-2 receptor (O43614 whole entry): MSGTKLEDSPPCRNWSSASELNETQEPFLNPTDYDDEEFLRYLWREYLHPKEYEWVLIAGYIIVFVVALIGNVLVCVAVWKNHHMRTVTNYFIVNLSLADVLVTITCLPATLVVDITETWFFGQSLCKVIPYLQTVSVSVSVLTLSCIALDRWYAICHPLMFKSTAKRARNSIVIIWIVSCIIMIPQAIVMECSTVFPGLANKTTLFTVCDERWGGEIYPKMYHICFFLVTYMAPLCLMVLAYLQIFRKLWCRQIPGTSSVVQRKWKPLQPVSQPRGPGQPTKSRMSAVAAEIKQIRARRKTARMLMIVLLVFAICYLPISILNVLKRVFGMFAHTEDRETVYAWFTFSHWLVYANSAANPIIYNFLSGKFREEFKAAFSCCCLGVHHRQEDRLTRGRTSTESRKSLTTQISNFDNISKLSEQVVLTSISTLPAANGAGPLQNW
Method: (§1) In Vitro Assay: Intracellular Calcium Measurements:
(§2) Chinese hamster ovary (CHO) cells expressing the human orexin-1 receptor and the human orexin-2 receptor, respectively, are grown in culture medium (Ham F-12 with L-Glutamine) containing 300 μg/mL G418, 100 U/mL penicillin, 100 μg/mL streptomycin and 10% heat inactivated fetal calf serum (FCS). The cells are seeded at 20,000 cells/well into 384-well black clear bottom sterile plates (Greiner). The seeded plates are incubated overnight at 37° C. in 5% CO2.
(§3) Human orexin-A as an agonist is prepared as 1 mM stock solution in MeOH: water (1:1), diluted in HBSS containing 0.1% bovine serum albumin (BSA), NaHCO3: 0.375 g/L and 20 mM HEPES for use in the assay at a final concentration of 3 nM.
(§4) Antagonists are prepared as 10 mM stock solution in DMSO, then diluted in 384-well plates using DMSO followed by a transfer of the dilutions into in HBSS containing 0.1% bovine serum albumin (BSA), NaHCO3: 0.375 g/L and 20 mM HEPES. On the day of the assay, 50 μL of staining buffer (HBSS containing 1% FCS, 20 mM HEPES, NaHCO3: 0.375 g/L, 5 mM probenecid (Sigma) and 3 μM of the fluorescent calcium indicator fluo-4 AM (1 mM stock solution in DMSO, containing 10% pluronic) is added to each well. The 384-well cell-plates are incubated for 50 min at 37° C. in 5% CO2 followed by equilibration at rt for 30 min before measurement.
(§5) Within the Fluorescent Imaging Plate Reader (FLIPR Tetra, Molecular Devices), antagonists are added to the plate in a volume of 10 μL/well, incubated for 120 min and finally 10 μL/well of agonist is added. Fluorescence is measured for each well at 1 second intervals, and the height of each fluorescence peak is compared to the height of the fluorescence peak induced by 3 nM orexin-A with vehicle in place of antagonist. […] Optimized conditions were achieved by adjustment of pipetting speed and cell splitting regime. The calculated IC50 values may fluctuate depending on the daily cellular assay performance. Fluctuations of this kind are known to those skilled in the art.

orexin-1 = orexin-1 (Homo sapiens (Human), UniProt O43613); assay: Intracellular calcium measurement (FLIPR), CHO cells expressing human orexin-1 receptor, 3 nM orexin-A; assay type: cell-based; conditions: read-out: IC50 OX1
Sequence of orexin-1 (O43613 whole entry): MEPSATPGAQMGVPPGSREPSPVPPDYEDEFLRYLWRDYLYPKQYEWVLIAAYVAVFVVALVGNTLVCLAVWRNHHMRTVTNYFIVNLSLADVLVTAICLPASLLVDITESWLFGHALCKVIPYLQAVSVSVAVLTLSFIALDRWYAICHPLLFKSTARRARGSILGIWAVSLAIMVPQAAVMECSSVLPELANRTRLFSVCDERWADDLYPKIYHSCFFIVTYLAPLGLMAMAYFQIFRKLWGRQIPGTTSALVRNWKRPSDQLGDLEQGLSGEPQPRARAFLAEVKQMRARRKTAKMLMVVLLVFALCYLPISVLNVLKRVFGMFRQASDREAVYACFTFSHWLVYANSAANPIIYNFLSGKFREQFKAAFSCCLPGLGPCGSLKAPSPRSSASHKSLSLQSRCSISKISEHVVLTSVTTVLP
Method: as §1, §2, §3, §4, §5

[1] = CHO cells expressing human orexin-2 receptor, FLIPR, 3 nM orexin-A, geometric mean if determined several times
[2] = CHO cells expressing human orexin-1 receptor, FLIPR, 3 nM orexin-A, geometric mean if determined several times

Row | Compound | IC50 (human orexin-2 receptor; [1]) | IC50 (orexin-1; [2]) | IC50 (human orexin-2 receptor) | IC50 (orexin-1)
1 | Cc1ccc(-n2nccn2)c(C(=O)N2CCC[C@H]2c2nc(-c3cccc(Cl)c3C)no2)c1F [compound 266] |  |  | 14 nM | 115 nM
2 | Cc1ccc(-n2nccn2)c(C(=O)N2CCC[C@H]2c2cnc(-c3ccccc3)[nH]2)c1 [compound 519, (5-Methyl-2-[1,2,3]triazol-2-yl-phenyl)-[(S)-2-(2-phenyl-3H-imidazol-4-yl)-pyrrolidin-1-yl]-methanone] | 720 nM | 1390 nM |  | 
3 | O=C(c1ccccc1-n1nccn1)N1CCC[C@H]1c1nc(-c2ccccc2Cl)no1 [compound 243] |  |  | 312 nM | 2680 nM
4 | COc1ccc(C)cc1-c1nc([C@@H]2CCCN2C(=O)c2cc(C)c(C)cc2-n2nccn2)no1 [compound 384, (4,5-Dimethyl-2-[1,2,3]triazol-2-yl-phenyl)-{(S)-2-[5-(2-methoxy-5-methyl-phenyl)-[1,2,4]oxadiazol-3-yl]-pyrrolidin-1-yl}-methanone] | 2 nM | 22 nM |  | 
5 | COc1c(Cl)cccc1-c1nc([C@@H]2CCCN2C(=O)c2ccc(C)cc2-n2nccn2)no1 [compound 354] | 5 nM | 12 nM |  | 
6 | COc1cc(C(=O)N2CCC[C@H]2c2nnc(-c3cccc(F)c3OC)[nH]2)c(-n2nccn2)cc1Cl [compound 472] | 2 nM | 19 nM |  | 
7 | COc1c(F)cccc1-c1nnc([C@@H]2CCCN2C(=O)c2ccc(Cl)cc2-n2nccn2)[nH]1 [compound 476] | 3 nM | 27 nM |  | 
8 | COc1cc(C(=O)N2CCC[C@H]2c2nnc(-c3cccc(Cl)c3OC)[nH]2)c(-n2nccn2)cc1Cl [compound 491, {(S)-2-[5-(3-Chloro-2-methoxy-phenyl)-4H-[1,2,4]triazol-3-yl]-pyrrolidin-1-yl}-(4-chloro-5-methoxy-2-[1,2,3]triazol-2-yl-phenyl)-methanone] | 1 nM | 33 nM |  | 
9 | COc1ccc(C)cc1-c1nc([C@@H]2CCCN2C(=O)c2ccc(Cl)cc2-n2nccn2)no1 [compound 381] | 28 nM | 136 nM |  | 
10 | COc1cc(C(=O)N2CCC[C@H]2c2nc(-c3ccccc3OC(F)(F)F)no2)c(-c2ncccn2)cc1C [compound 285, (5-Methoxy-4-methyl-2-pyrimidin-2-yl-phenyl)-{(S)-2-[3-(2-trifluoromethoxy-phenyl)-[1,2,4]oxadiazol-5-yl]-pyrrolidin-1-yl}-methanone] | 56 nM | 90 nM |  | 
11 | Cc1ccc(-n2nccn2)c(C(=O)N2CCC[C@H]2c2nc(-c3cccnc3C)no2)c1 [compound 78, {(S)-2-[3-(2-Methyl-pyridin-3-yl)-[1,2,4]oxadiazol-5-yl]-pyrrolidin-1-yl}-(5-methyl-2-[1,2,3]triazol-2-yl-phenyl)-methanone] | 29 nM | 2290 nM |  | 
12 | COc1c(F)cccc1-c1nc([C@@H]2CCCN2C(=O)c2cc(C)c(C)cc2-n2nccn2)no1 [compound 340, (4,5-Dimethyl-2-[1,2,3]triazol-2-yl-phenyl)-{(S)-2-[5-(3-fluoro-2-methoxy-phenyl)-[1,2,4]oxadiazol-3-yl]-pyrrolidin-1-yl}-methanone] | 0.4 nM |  |  | 
13 | CCOc1c(F)cccc1-c1nc([C@@H]2CCCN2C(=O)c2cc(C)c(C)cc2-n2nccn2)no1 [compound 324, (4,5-Dimethyl-2-[1,2,3]triazol-2-yl-phenyl)-{(S)-2-[5-(2-ethoxy-3-fluoro-phenyl)-[1,2,4]oxadiazol-3-yl]-pyrrolidin-1-yl}-methanone] | 1 nM |  |  | 
14 | CCOc1ncccc1-c1nc([C@@H]2CCCN2C(=O)c2cc(Cl)c(C)cc2-n2nccn2)no1 [compound 380] | 1 nM |  |  | 
15 | {(S)-2-[3-(3-Chloro-2-methyl-phenyl)-[1,2,4]oxadiazol-5-yl]-pyrrolidin-1-yl}-[3-(2-chloro-phenyl)-5-methyl-isoxazol-4-yl]-methanone [Reference compound 7, reference compound] | 37 nM |  |  | 

More lines, main results first:

Row | IC50 (human orexin-2 receptor; [1]) | IC50 (orexin-1; [2]) | Compound | IC50 (human orexin-2 receptor) | IC50 (orexin-1)
16 | 9 nM | 12 nM | Cc1ccc(-c2ccccc2)c(C(=O)N2CCC[C@H]2c2nc(-c3ccccc3OC(F)(F)F)no2)c1 [compound 136, (4-Methyl-biphenyl-2-yl)-{(S)-2-[3-(2-trifluoromethoxy-phenyl)-[1,2,4]oxadiazol-5-yl]-pyrrolidin-1-yl}-methanone] |  | 
17 | 6 nM | 90 nM | COc1cc(C(=O)N2CCC[C@H]2c2nc(-c3cccc(F)c3OC)no2)c(-c2ncccn2)cc1C [compound 286, {(S)-2-[3-(3-Fluoro-2-methoxy-phenyl)-[1,2,4]oxadiazol-5-yl]-pyrrolidin-1-yl}-(5-methoxy-4-methyl-2-pyrimidin-2-yl-phenyl)-methanone] |  | 
18 | 135 nM | 296 nM | CCOc1ncccc1-c1noc([C@@H]2CCCN2C(=O)c2cc(C#N)ccc2-n2nccn2)n1 [compound 279, 3-{(S)-2-[3-(2-Ethoxy-pyridin-3-yl)-[1,2,4]oxadiazol-5-yl]-pyrrolidine-1-carbonyl}-4-[1,2,3]triazol-2-yl-benzonitrile] |  | 
19 | 992 nM | 361 nM | COc1ccccc1-c1noc([C@@H]2CCCN2C(=O)c2nc(C)ccc2-n2nccn2)n1 [compound 235, {(S)-2-[3-(2-Methoxy-phenyl)-[1,2,4]oxadiazol-5-yl]-pyrrolidin-1-yl}-(6-methyl-3-[1,2,3]triazol-2-yl-pyridin-2-yl)-methanone] |  | 
20 | 17 nM | 21 nM | CCOc1ncccc1-c1nnc([C@@H]2CCCN2C(=O)c2cc(OC)c(C)cc2-n2nccn2)[nH]1 [compound 479, {(S)-2-[5-(2-Ethoxy-pyridin-3-yl)-4H-[1,2,4]triazol-3-yl]-pyrrolidin-1-yl}-(5-methoxy-4-methyl-2-[1,2,3]triazol-2-yl-phenyl)-methanone] |  | 
21 | 2 nM | 36 nM | CCOc1ccccc1-c1nc([C@@H]2CCCN2C(=O)c2cc(C)ccc2-n2nccn2)no1 [compound 306, {(S)-2-[5-(2-Ethoxy-phenyl)-[1,2,4]oxadiazol-3-yl]-pyrrolidin-1-yl}-(5-methyl-2-[1,2,3]triazol-2-yl-phenyl)-methanone] |  | 
22 | 20 nM | 69 nM | CCOc1ccccc1-c1noc([C@@H]2CCCN2C(=O)c2cccc(F)c2-c2ccn[nH]2)n1 [compound 254, {(S)-2-[3-(2-Ethoxy-phenyl)-[1,2,4]oxadiazol-5-yl]-pyrrolidin-1-yl}-[3-fluoro-2-(2H-pyrazol-3-yl)-phenyl]-methanone] |  | 
23 | 4 nM | 36 nM | Cc1cc(C(=O)N2CCC[C@H]2c2noc(-c3cccc(C)c3C)n2)c(-n2nccn2)cc1C [compound 400, {(S)-2-[5-(2,3-Dimethyl-phenyl)-[1,2,4]oxadiazol-3-yl]-pyrrolidin-1-yl}-(4,5-dimethyl-2-[1,2,3]triazol-2-yl-phenyl)-methanone] |  | 
24 | 15 nM | 35 nM | CCc1ccccc1-c1nc([C@@H]2CCCN2C(=O)c2cc(C)ccc2-n2nccn2)no1 [compound 389, {(S)-2-[5-(2-Ethyl-phenyl)-[1,2,4]oxadiazol-3-yl]-pyrrolidin-1-yl}-(5-methyl-2-[1,2,3]triazol-2-yl-phenyl)-methanone] |  | 
25 |  | 650 nM | Cc1ccc(C(=O)N2CCC[C@H]2c2cnc(-c3ccccc3)[nH]2)c(-n2nccn2)c1 [compound 520, (4-Methyl-2-[1,2,3]triazol-2-yl-phenyl)-[(S)-2-(2-phenyl-3H-imidazol-4-yl)-pyrrolidin-1-yl]-methanone] |  | 
